From patent publication US9737535B2, “Methods for treating cancer using TOR kinase inhibitor combination therapy comprising administering substituted pyrazino[2,3-b]pyrazines” (Signal Pharmaceuticals, LLC, priority 2014, dated 2017)
Where a name gives a salt, the structure may show the parent alone.

Key:
Test in all cases: Anti-proliferation assay (ATPLite), Chalice synergy score
Type in all cases: cell-based
[1] = system: HCC-1500; parameters: scale not given here; conditions: Compound 1 in combination with the named second active agent, 72 h, mean of n = 3 experiments in triplicate
Excerpt: (§1) Cells were thawed from a liquid nitrogen preserved state.
(§2) The calculation for synergy score is provided below.
(§3) If T≧V0:100*[1−(T−V0)/(V−V0)]

[2] = system: HCC-1187; parameters: scale not given here; conditions: Compound 1 in combination with the named second active agent, 72 h, mean of n = 3 experiments in triplicate
Excerpt: as §1, §2, §3

[3] = system: BT-20; parameters: scale not given here; conditions: Compound 1 in combination with the named second active agent, 72 h, mean of n = 3 experiments in triplicate
Excerpt: as §1, §2, §3

[4] = system: MDA-MB-231; conditions: Compound 1 in combination with second active agent, mean self-cross + 2σ threshold 2.61
Excerpt: as §1, §2, §3

[5] = system: MDA-MB-468; conditions: Compound 1 in combination with second active agent, mean self-cross + 2σ threshold 4.66
Excerpt: as §1, §2, §3

[6] = system: MDA-MB-436; conditions: Compound 1 in combination with second active agent, mean self-cross + 2σ threshold 1.91
Excerpt: as §1, §2, §3

[7] = system: BT-474; conditions: Compound 1 in combination with the named second active agent, 72 h, mean of n = 3 experiments in triplicate
Excerpt: as §1, §2, §3

[8] = system: BT-549; conditions: Compound 1 in combination with the named second active agent, 72 h, mean of n = 3 experiments in triplicate
Excerpt: as §1, §2, §3

[9] = system: HCC-1806; conditions: Compound 1 in combination with the named second active agent, 72 h, mean of n = 3 experiments in triplicate
Excerpt: as §1, §2, §3

[10] = system: HCC-1428; conditions: Compound 1 in combination with the named second active agent, 72 h, mean of n = 3 experiments in triplicate
Excerpt: as §1, §2, §3

[11] = system: MCF7; conditions: Compound 1 in combination with second active agent, mean self-cross + 2σ threshold 3.07
Excerpt: as §1, §2, §3

[12] = system: HCC70; conditions: Compound 1 in combination with second active agent; HCC-70; mean self-cross + 2σ threshold 3.45
Excerpt: as §1, §2, §3

[13] = system: Hs-578-T; conditions: Compound 1 in combination with second active agent, mean self-cross + 2σ threshold 4.09
Excerpt: as §1, §2, §3

[14] = system: MDA-MB-157; conditions: Compound 1 in combination with second active agent, mean self-cross + 2σ threshold 4.68
Excerpt: as §1, §2, §3

[15] = system: HCC-1937; conditions: Compound 1 in combination with the named second active agent, 72 h, mean of n = 3 experiments in triplicate
Excerpt: as §1, §2, §3

| Molecule | Synergy score [1] | Synergy score [2] | Synergy score [3] | Synergy score [4] | Synergy score [5] | Synergy score [6] | Synergy score [7] | Synergy score [8] | Synergy score [9] | Synergy score [10] | Synergy score [11] | Synergy score [12] | Synergy score [13] | Synergy score [14] | Synergy score [15] |
| --- | --- | --- | --- | --- | --- | --- | --- | --- | --- | --- | --- | --- | --- | --- | --- |
| CC[C@@]1(O)C(=O)OCc2c1cc1n(c2=O)Cc2cc3cc(O)ccc3nc2-1 [10-Hydroxycamptothecin] | 4.43 | 6.49 | 6.15 | 8.55 | 7.86 | 3.62 | 1.20 | 4.11 | 3.88 | 4.13 | 3.80 | 6.31 | 1.70 | 10.30 | 12.40 |
| CN(C)CC[C@H](CSc1ccccc1)Nc1ccc(S(=O)(=O)NC(=O)c2ccc(N3CCN(Cc4ccccc4-c4ccc(Cl)cc4)CC3)cc2)cc1[N+](=O)[O-] [ABT-737] | 4.23 | 8.77 | 7.28 | 10.00 | 8.29 | 0.56 | 4.14 | 6.10 | 6.15 | 10.60 | 6.97 | 9.10 | 10.00 | 4.46 | 5.46 |
| C[C@]1(c2nc3c(C(N)=O)cccc3[nH]2)CCCN1 [ABT-888] | 1.13 | 1.28 | 0.33 | 0.22 | 0.18 | 0.32 | 0.09 | 0.35 | 0.56 | 0.09 | 0.25 | 1.10 | 0.42 | 0.90 | 0.35 |
| O=C(NC[C@H](O)CO)c1ccncc1Nc1ccc(I)cc1F [AS703026] | 4.24 | 8.22 | 6.08 | 10.90 | 5.71 | 2.25 | 2.61 | 1.73 | 4.71 | 6.26 | 2.90 | 13.70 | 6.43 | 6.66 | 2.41 |
| C=CC(=O)Nc1ccc2ncnc(Nc3ccc(OCc4cccc(F)c4)c(Cl)c3)c2c1 [AST-1306] | 0.96 | 2.17 | 7.60 | 4.37 | 5.65 | 2.08 | 4.02 | 4.88 | 5.59 | 2.69 | 4.34 | 7.50 | 4.43 | 3.02 | 6.39 |
| O=C(NC1CCNCC1)c1[nH]ncc1NC(=O)c1c(Cl)cccc1Cl [AT7519] | 0.03 | – | 4.95 | 2.68 | 1.98 | 2.57 | 0.19 | 4.33 | 1.01 | 1.58 | 2.84 | 0.86 | 5.16 | 5.37 | 2.04 |
| CS(=O)(=O)c1ccc(C(=O)Nc2ccc(Cl)c(-c3ccccn3)c2)c(Cl)c1 [GDC-0449] | 0.78 | 3.07 | 0.11 | 0.08 | 0.44 | – | 1.47 | – | 0.20 | 0.07 | – | 1.10 | 0.28 | 0.77 | 0.88 |
| CNC(=O)c1ccc(-c2cnc3ncc(Cc4ccc5ncccc5c4)n3n2)cc1F [INCB28060] | 0.52 | 2.94 | – | 0.34 | 0.80 | 0.49 | 2.35 | 0.66 | 0.62 | 0.75 | 0.92 | 0.75 | 0.85 | 0.97 | 0.71 |
| CCc1c2c(nc3ccc(OC(=O)N4CCC(N5CCCCC5)CC4)cc13)-c1cc3c(c(=O)n1C2)COC(=O)[C@]3(O)CC [Irinotecan Hydrochloride] | 4.45 | 3.01 | 2.59 | 1.64 | 8.45 | 3.61 | 1.17 | 1.25 | – | 0.76 | 2.02 | 1.98 | – | 5.71 | 3.92 |
| c1ccc2c(CCNc3ccc(Nc4ccncc4)cc3)c[nH]c2c1 [JNJ 26854165] | 1.50 | 1.63 | 1.42 | 0.31 | 3.28 | 1.47 | 1.77 | 0.78 | 2.51 | 1.02 | 1.82 | 2.46 | 1.28 | 2.53 | – |
| CC(C)(C)Cn1c(N)nc2ccc(-c3[nH]c(C(C)(C)C)nc3-c3ccc(F)cc3)nc21 [LY2228820] | 3.91 | 0.80 | 0.20 | 2.18 | 5.77 | 1.32 | 2.81 | 1.26 | 2.81 | 1.80 | 3.76 | 3.65 | – | 5.64 | – |
| COc1ccc(C2=N[C@@H](c3ccc(Cl)cc3)[C@@H](c3ccc(Cl)cc3)N2C(=O)N2CCNC(=O)C2)c(OC(C)C)c1 [Nutlin-3] | 2.54 | 2.08 | 0.27 | 0.27 | – | 0.50 | 0.34 | 0.40 | 0.79 | 0.33 | 2.05 | 2.72 | 1.65 | 0.66 | 0.58 |
| C=CC(=O)N1CCC[C@@H](n2nc(-c3ccc(Oc4ccccc4)cc3)c3c(N)ncnc32)C1 [PCI-32765] | 0.56 | 1.70 | 6.26 | 0.27 | 3.10 | 0.07 | 5.95 | 0.05 | 3.72 | 0.59 | 0.13 | 6.29 | – | 3.28 | 1.62 |
| CC(=O)c1c(C)c2cnc(Nc3ccc(N4CCNCC4)cn3)nc2n(C2CCCC2)c1=O [PD-0332991] | 2.71 | 2.76 | – | 2.88 | 2.12 | 0.44 | 0.31 | 1.10 | 1.54 | 2.01 | 2.48 | 2.17 | 0.75 | 0.73 | 0.55 |
| Oc1c2ccccc2c2c3c(cccc13)N=N2 [SP 600125] | 1.15 | 5.59 | 0.00 | 0.65 | – | 0.79 | 0.72 | 1.47 | 1.16 | 1.44 | 0.75 | 3.49 | 0.97 | 1.18 | 0.87 |
| CHIR98014 | – | 3.13 | 0.17 | 3.91 | 3.00 | 0.64 | 0.02 | 0.49 | 1.56 | 0.72 | 0.29 | 0.82 | 5.48 | 3.17 | 0.63 |
